From patent publication US9492436B2, “Azabenzimidazole derivatives” (Boehringer Ingelheim International GmbH, priority 2013, dated 2016)

molecular target: T1, AMPK complex 1 (containing alpha1beta1gamma1) (Homo sapiens, UniProt Q13131+Q9Y478); assay: In vitro AMPK activation assay (ADP-Glo Kinase Assay); format: biochemical; conditions: 30 μM ATP, 1 μM peptide, 60 min, room temperature
T1 construct: GST (Glutathion S transferase) (N); made in house; host or cells: baculovirus; virus made in Sf9, expression in High Five cells
Excerpt: Activated AMPK complex 1 (containing alpha1beta1gamma1) was obtained from baculovirus expression system. The gene encoding AMPK alpha1 was cloned into the pACG2T vector (BD Biosciences) to obtain a N-terminal Glutathion S transferase (GST)-fusion protein. The genes encoding AMPK beta 1 and gamma1 were cloned into the p2Bac dual multiple cloning site vector (Invitrogen) with beta1 under the control of the p10 promoter and gamma1 under the control of the PH promoter. The transfer vectors containing AMPK were co-transfected individually with AcPNV BacMagic-3 DNA (EMD Millipore) in Sf9 cells and the recombinant baculoviruses were harvested after 5 days, followed by 3 rounds of amplification of the virus stock in Sf9 cells. AMPK (alpha1beta1gamma1) was expressed in High Five 5 cells by co-infection of recombinant alpha1 virus and recombinant beta1/gamma1 virus for 72 h at 27° C. Cells were harvested by centrifugation and lysed by 3 freeze/thaw cycles in PBS with 10% glycerol and protease inhibitor cocktail (Roche). After centrifugation AMPK a1b1g1 in the supernatant was captured by immobilized glutathione (GE Healthcare), impurities were washed away with PBS and AMPK alpha1beta1gamma1 was eluted with PBS containing 20 mM reduced gluthathione. The protein buffer was then exchanged to PBS with 10% glycerol and protein concentration was determined by UV absorbance.
The white 384-well Optiplates (cat.no. 6007299) were purchased from PerkinElmer. The V9101 ADP-Glo Kinase Assay and ultra pure ATP (V915A) was purchased from Promega. The substrate for AMPK (NH2-HMRSAMSGLHLVKRR_CONH2) was purchased from Upstate (12-355).
Compounds were tested in either serial dilutions or single dose concentrations. The serial compound dilutions were prepared in 100% DMSO automatically. The final DMSO concentration in the assay was 0.1%.
The Compound Stock Solutions were 10 mM in 100% DMSO. The compounds were solubilised at room temperature.
In the 384-well plates 1.25 ul of test compound in assay buffer was mixed with 1.25 ul of AMPK and 1.25 μl of the peptide (final concentration of 1 μM) and 1.25 μl of ATP (final concentration of 30 μM), both dissolved in assay buffer. This step was followed by an incubation time of 60 min. Then 5 μl of ADP Glo Reagent was added. This was followed by 40 min of incubation. Then 10 μl of Kinase Detection Reagent was admixed. The plates were sealed and after an incubation period of 30 min, the luminescence signal was measured in an Envision reader. All incubation steps were accomplished at room temperature.
Each assay microtiter plate contained wells with vehicle controls instead of compound (0.1% DMSO in water) as reference for the low signal (100% CTL, low signal), and wells with serial dilutions of AMP (final 30 μM) as reference for high signals.
The luminescence signal generated was proportional to the ADP concentration produced and was correlated with AMPK activity. The analysis of the data was performed by the calculation of the percentage of ATP consumption of AMPK in the presence of the test compound compared to the consumption of ATP in the presence of AMPK without compound. (RLU(sample)/RLU(low control))*100[RLU=relative luminescence units]
An activator of the AMPK enzyme gave values above 100% CTL.
EC50 values based on dose response curves are calculated with the XIFIT software using the 4 Parameter Logistic Model or Sigmoidal Dose-Response Model.

T1 sequence (Q13131 whole entry): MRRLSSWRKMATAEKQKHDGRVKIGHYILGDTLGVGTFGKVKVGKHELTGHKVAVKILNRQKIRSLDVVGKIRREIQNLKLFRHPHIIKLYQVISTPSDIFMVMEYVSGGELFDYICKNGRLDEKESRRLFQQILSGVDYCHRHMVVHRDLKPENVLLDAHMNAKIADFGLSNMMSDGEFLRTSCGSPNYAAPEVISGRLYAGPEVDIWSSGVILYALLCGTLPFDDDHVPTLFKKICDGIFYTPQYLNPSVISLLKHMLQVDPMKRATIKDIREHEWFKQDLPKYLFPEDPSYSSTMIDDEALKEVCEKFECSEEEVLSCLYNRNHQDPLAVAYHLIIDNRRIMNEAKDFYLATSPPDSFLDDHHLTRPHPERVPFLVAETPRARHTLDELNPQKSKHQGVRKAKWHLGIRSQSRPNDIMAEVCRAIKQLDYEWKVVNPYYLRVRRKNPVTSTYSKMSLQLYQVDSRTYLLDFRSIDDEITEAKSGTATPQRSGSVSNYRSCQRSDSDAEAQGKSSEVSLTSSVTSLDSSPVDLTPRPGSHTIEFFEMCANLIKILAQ
T1 sequence (Q9Y478 whole entry): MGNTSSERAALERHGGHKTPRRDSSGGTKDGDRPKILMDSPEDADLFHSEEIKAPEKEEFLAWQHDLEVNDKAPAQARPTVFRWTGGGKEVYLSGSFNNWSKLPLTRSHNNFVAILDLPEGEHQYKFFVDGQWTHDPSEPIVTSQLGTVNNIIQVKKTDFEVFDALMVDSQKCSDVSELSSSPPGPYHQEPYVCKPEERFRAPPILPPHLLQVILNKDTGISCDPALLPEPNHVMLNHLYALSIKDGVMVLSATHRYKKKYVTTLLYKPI
T1 sequence (P54619 whole entry partner): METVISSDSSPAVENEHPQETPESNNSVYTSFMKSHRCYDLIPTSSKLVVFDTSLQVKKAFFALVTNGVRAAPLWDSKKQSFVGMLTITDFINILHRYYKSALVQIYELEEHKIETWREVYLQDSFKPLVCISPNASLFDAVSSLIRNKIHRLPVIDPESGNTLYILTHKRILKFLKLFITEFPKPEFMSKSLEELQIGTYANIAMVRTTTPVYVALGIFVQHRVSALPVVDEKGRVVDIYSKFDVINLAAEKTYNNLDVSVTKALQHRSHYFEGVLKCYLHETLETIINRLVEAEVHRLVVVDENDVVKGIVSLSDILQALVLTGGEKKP

Q: How did the EC50 turn out when N=S1(=O)CCC(c2ccc(-c3nc4[nH]c(O[C@@H]5CO[C@H]6[C@@H]5OC[C@H]6O)nc4cc3Cl)cc2)CC1 (single isomer, unassigned) [Example 54] was run?
A: Its EC50 is 114 nM.

Q: N=S1(=O)CCC(c2ccc(-c3nc4[nH]c(O[C@@H]5CO[C@H]6[C@@H]5OC[C@H]6O)nc4cc3Cl)cc2)CC1 (single isomer, unassigned) [Example 55] was tested. Which EC50 did it give?
A: Its EC50 is 26 nM.

Q: With CS(C)(=O)=Nc1ccc(-c2nc3[nH]c(O[C@@H]4CO[C@H]5[C@@H]4OC[C@H]5O)nc3cc2Cl)cc1 [Example 1] as the molecule, how does the EC50 read?
A: The EC50 was 275 nM.

Q: How did the EC50 turn out when CS(C)(=O)=NC(=O)c1ccc(-c2nc3[nH]c(O[C@@H]4CO[C@H]5[C@@H]4OC[C@H]5O)nc3cc2Cl)cc1 [Example 3] was run?
A: The EC50 was 402 nM.

Q: Which EC50 does the source give for N=S1(=O)CCN(c2ccc(-c3nc4[nH]c(O[C@@H]5CO[C@H]6[C@@H]5OC[C@H]6O)nc4cc3Cl)cc2)CC1 [Example 4] here?
A: Its EC50 is 22 nM.

Q: How did the EC50 turn out when CN=S1(=O)CCN(c2ccc(-c3nc4[nH]c(O[C@@H]5CO[C@H]6[C@@H]5OC[C@H]6O)nc4cc3Cl)cc2)CC1 [Example 5] was run?
A: The EC50 was 62 nM.

Q: With CS(C)(=O)=NC(=O)c1ccc(-c2ccc(-c3nc4[nH]c(O[C@@H]5CO[C@H]6[C@@H]5OC[C@H]6O)nc4cc3Cl)cc2)cc1 [Example 6, N-4′-(6-Chloro-2-((3R,3aR,6R,6aR)-6-hydroxyhexahydrofuro[3,2-b]furan-3-yloxy)-3H-imidazo[4,5-b]pyridin-5-yl)biphenyl-4-carbonyl-S,S-dimethylsulfoximide] as the molecule, how does the EC50 read?
A: Its EC50 is 2 nM.

Q: Which EC50 does the source give for O=S1(=Nc2ccc(-c3ccc(-c4nc5[nH]c(O[C@@H]6CO[C@H]7[C@@H]6OC[C@H]7O)nc5cc4Cl)cc3)cc2)CCCC1 [Example 8, (3R,3aR,6R,6aR)-6-{6-Chloro-5-[4′-(1-oxo-tetrahydro-1λ4-thiophen-1-ylideneamino)-biphenyl-4-yl]-3H-imidazo[4,5-b]pyridin-2-yloxy}-hexahydro-furo[3,2-b]furan-3-ol] here?
A: The EC50 was 4 nM.

Q: With C[S@@](=O)(=Nc1ccc(-c2nc3[nH]c(O[C@@H]4CO[C@H]5[C@@H]4OC[C@H]5O)nc3cc2Cl)cc1)c1ccccc1 [Example 9, (S)-N-(4-(6-Chloro-2-((3R,3aR,6R,6aR)-6-hydroxyhexahydrofuro[3,2-b]furan-3-yloxy)-3H-imidazo[4,5-b]pyridin-5-yl)phenyl)-S-methyl-S-phenylsulfoximide] as the molecule, how does the EC50 read?
A: The EC50 was 14 nM.

Q: With CCS(=O)(CC)=Nc1ccc(-c2ccc(-c3nc4[nH]c(O[C@@H]5CO[C@H]6[C@@H]5OC[C@H]6O)nc4cc3Cl)cc2)cc1 [Example 11, N-(4′-(6-Chloro-2-((3R,3aR,6R,6aR)-6-hydroxyhexahydrofuro[3,2-b]furan-3-yloxy)-3H-imidazo[4,5-b]pyridin-5-yl)biphenyl-4-yl)-S,S-diethylsulfoximide] as the molecule, how does the EC50 read?
A: The EC50 was 3 nM.

Q: Which EC50 does the source give for C[S@](=O)(=Nc1ccc(-c2nc3[nH]c(O[C@@H]4CO[C@H]5[C@@H]4OC[C@H]5O)nc3cc2Cl)cc1)c1ccccc1 [Example 12, (R)-N-(4-(6-Chloro-2-((3R,3aR,6R,6aR)-6-hydroxyhexahydrofuro[3,2-b]furan-3-yloxy)-3H-imidazo[4,5-b]pyridin-5-yl)phenyl)-S-methyl-S-phenylsulfoximide] here?
A: Its EC50 is 581 nM.

Q: CCS(C)(=O)=Nc1ccc(-c2ccc(-c3nc4[nH]c(O[C@@H]5CO[C@H]6[C@@H]5OC[C@H]6O)nc4cc3Cl)cc2)cc1 (stereo partly drawn) [Example 13, N-(4′-(6-Chloro-2-((3R,3aR,6R,6aR)-6-hydroxyhexahydrofuro[3,2-b]furan-3-yloxy)-3H-imidazo[4,5-b]pyridin-5-yl)biphenyl-4-yl)-S-ethyl-S-methylsulfoximide] was tested. Which EC50 did it give?
A: The EC50 was 4 nM.

Q: Which EC50 does the source give for CS(C)(=O)=Nc1cccc(-c2ccc(-c3nc4[nH]c(O[C@@H]5CO[C@H]6[C@@H]5OC[C@H]6O)nc4cc3Cl)cc2)c1 [Example 14, N-(4′-(6-Chloro-2-((3R,3aR,6R,6aR)-6-hydroxyhexahydrofuro[3,2-b]furan-3-yloxy)-3H-imidazo[4,5-b]pyridin-5-yl)biphenyl-3-yl)-S,S-dimethylsulfoximide] here?
A: The EC50 was 6 nM.

Q: How did the EC50 turn out when CS(=O)(=Nc1ccc(-c2ccc(-c3nc4[nH]c(O[C@@H]5CO[C@H]6[C@@H]5OC[C@H]6O)nc4cc3Cl)cc2)cc1)C1CC1 (stereo partly drawn) [Example 15, N-(4′-(6-Chloro-2-((3R,3aR,6R,6aR)-6-hydroxyhexahydrofuro[3,2-b]furan-3-yloxy)-3H-imidazo[4,5-b]pyridin-5-yl)biphenyl-4-yl)-S-cyclopropyl-S-methylsulfoximide] was run?
A: The EC50 was 41 nM.

Q: For C[S@@](=O)(=NC(=O)c1ccc(-c2nc3[nH]c(O[C@@H]4CO[C@H]5[C@@H]4OC[C@H]5O)nc3cc2Cl)cc1)c1ccccc1 [Example 16, (S)-N-4-(6-Chloro-2-((3R,3aR,6R,6aR)-6-hydroxyhexahydrofuro[3,2-b]furan-3-yloxy)-3H-imidazo[4,5-b]pyridin-5-yl)benzoyl-S-methyl-5-phenylsulfoximine], which EC50 is on record?
A: Its EC50 is 245 nM.

Q: For CS(C)(=N)=Nc1ccc(-c2ccc(-c3nc4[nH]c(O[C@@H]5CO[C@H]6[C@@H]5OC[C@H]6O)nc4cc3Cl)cc2)cc1 [Example 17, N-(4′-(6-Chloro-2-((3R,3aR,6R,6aR)-6-hydroxyhexahydrofuro[3,2-b]furan-3-yloxy)-3H-imidazo[4,5-b]pyridin-5-yl)biphenyl-4-yl)-S,S-dimethyl-sulfondiimine], which EC50 is on record?
A: The EC50 was 1 nM.

Q: With CC(C)S(C)(=O)=Nc1ccc(-c2ccc(-c3nc4[nH]c(O[C@@H]5CO[C@H]6[C@@H]5OC[C@H]6O)nc4cc3Cl)cc2)cc1 (stereo partly drawn) [Example 18, N-(4′-(6-Chloro-2-((3R,3aR,6R,6aR)-6-hydroxyhexahydrofuro[3,2-b]furan-3-yloxy)-3H-imidazo[4,5-b]pyridin-5-yl)biphenyl-4-yl)-S-isopropyl-S-methylsulfoximide] as the molecule, how does the EC50 read?
A: Its EC50 is 34 nM.

Q: CS(=O)(=NC(=O)c1ccc(-c2nc3[nH]c(O[C@@H]4CO[C@H]5[C@@H]4OC[C@H]5O)nc3cc2Cl)cc1)c1cccnc1 (stereo partly drawn) [Example 19, N-4-(6-Chloro-2-((3R,3aR,6R,6aR)-6-hydroxyhexahydrofuro[3,2-b]furan-3-yloxy)-3H-imidazo[4,5-b]pyridin-5-yl)benzoyl-S-methyl-S-(pyridin-3-yl)-sulfoximine] was tested. Which EC50 did it give?
A: The EC50 was 55 nM.

Q: CS(=O)(=NC(=O)c1ccc(-c2nc3[nH]c(O[C@@H]4CO[C@H]5[C@@H]4OC[C@H]5O)nc3cc2Cl)cc1)C1CCOCC1 (stereo partly drawn) [Example 20, N-4-(6-Chloro-2-((3R,3aR,6R,6aR)-6-hydroxyhexahydrofuro[3,2-b]furan-3-yloxy)-3H-imidazo[4,5-b]pyridin-5-yl)benzoyl-S-methyl-S-(tetrahydro-2H-pyran-4-yl)-sulfoximine] was tested. Which EC50 did it give?
A: The EC50 was 776 nM.

Q: For O=C(N=S1(=O)CCOCC1)c1ccc(-c2nc3[nH]c(O[C@@H]4CO[C@H]5[C@@H]4OC[C@H]5O)nc3cc2Cl)cc1 [Example 21, 4-[6-Chloro-2-((3R,3aR,6R,6aR)-6-hydroxy-hexahydro-furo[3,2-b]furan-3-yloxy)-3H-imidazo[4,5-b]pyridin-5-yl]-N-(4-oxo-4λ6-[1,4]oxathian-4-ylidene)-benzamide], which EC50 is on record?
A: Its EC50 is 43 nM.

Q: With O=C(N=S1(=O)CCCCC1)c1ccc(-c2nc3[nH]c(O[C@@H]4CO[C@H]5[C@@H]4OC[C@H]5O)nc3cc2Cl)cc1 [Example 24, 4-[6-Chloro-2-((3R,3aR,6R,6aR)-6-hydroxy-hexahydro-furo[3,2-b]furan-3-yloxy)-3H-imidazo[4,5-b]pyridin-5-yl]-N-(1-oxo-hexahydro-1λ6-thiopyran-1-ylidene)-benzamide] as the molecule, how does the EC50 read?
A: Its EC50 is 215 nM.

Q: Which EC50 does the source give for C[S@](=O)(=NC(=O)c1ccc(-c2nc3[nH]c(O[C@@H]4CO[C@H]5[C@@H]4OC[C@H]5O)nc3cc2Cl)cc1)c1ccccc1 [Example 25, (R)-N-4-(6-Chloro-2-((3R,3aR,6R,6aR)-6-hydroxyhexahydrofuro[3,2-b]furan-3-yloxy)-3H-imidazo[4,5-b]pyridin-5-yl)-benzoyl-S-methyl-5-phenylsulfoximine] here?
A: Its EC50 is 1200 nM.
